The text below walks through data of EP3027213B1, “COMPOSITIONS FOR AMELIORATING AND/OR PREVENTING ADVERSE SIDE EFFECTS IN ANTIBIOTIC THERAPY” (priority 2013, dated 2015).

By IC50 is commonly meant the concentration at which inhibition is half-maximal. Read a high IC50 as weaker potency in that assay.

Entries after “also recorded” stand apart in the source; their conditions may differ. Like-named read-outs stand apart in the source and are kept apart here. Bounds are passed on as bounds.

Series [1] has as its system human HT29 rho zero cell line. As to the kind of experiment: Growth of rho zero cells with alternative pyruvate or uridine sources, phase contrast microscopy (Example 5, Fig. 6). It counts as cell-based. The following applies: day 9. The procedure:
Side effects of antibiotics can be ameliorated by administration of pyruvate and uridine. This observation can be further substantiated by applying alternative pyruvate or uridine sources, as for example alanine and uridine monophosphate (UMP). • Alternative pyruvate source: To challenge this hypothesis, cells devoid of mitochondrial DNA (rho zero cells) resembling cells that were treated with the antibiotics and have lost their mitochondrial encoded proteins, were cultured in the presence of uridine, alanine and uridine or pyruvate and uridine. […] Cells growth medium was supplemented with uridine (0.2 mM uridine) or alanine (1-10 mM alanine) and uridine (0.2 mM uridine) or pyruvate (1 mM sodium pyruvate) and uridine (0.2 mM uridine) (see figure 6a). […] Thus, pyruvate can be substituted by alternative pyruvate sources to ameliorate side effects of antibiotics. • Alternative uridine source: To challenge this hypothesis, cells devoid of mitochondrial DNA (rho zero cells) resembling cells that were treated with the antibiotics and have lost their mitochondrial encoded proteins, were cultured in the presence of UMP, alanine and UMP or pyruvate and UMP. […] Cells growth medium was supplemented with UMP (0.2 mM UMP) or alanine (1-10 mM alanine) and UMP (0.2 mM UMP) or pyruvate (1 mM sodium pyruvate) and UMP (0.2 mM UMP) (see figure 6b). […] Thus, UMP can be substituted by alternative pyrimidine source to ameliorate side effects of antibiotics.

For series [2], the system named is dsRED-colorized 143B.TK^-CAP-res cells. The series is described as follows: Co-culture with chloramphenicol-sensitive and -resistant cells: resistant cells (Fig. 1d). It counts as cell-based, human. Conditions: co-culture on HDF monolayer with 143B.TK^- cells, uridine and pyruvate not supplied. From the text:
(§1) The panels display co-cultures grown on petri-dishes that contain a human dermal fibroblast (HDF) monolayer inoculated with GFP-colorized 143B.TK^- cells and dsRED-colorized 143B.TK^-CAP-res cells. The dsRED-colorized 143B.TK^-CAP-res cells contain a mitochondrial genotype that renders the cells chloramphenicol resistant.
(§2) To see whether or not the side-effect of these antibiotics reside within the mitochondria of the cell, a co-culture was established that was made of a primary fibroblast monolayer inoculated with 143B.TK^- and 143.TK^-CAP^res cells. The latter cell line is identical to the 143B.TK- cell line, except that these cells carry a CAP resistant mutation within the 16S rRNA gene located within the mitochondrial genome and are differently color coded.

Series [3] relates to GFP-colorized 143B.TK^- cells. It counts as cell-based. The following applies: human.
Source text: as §1, §2

The subject of series [4] is 143B.TK^- cells. As to the kind of experiment: cells. It counts as cell-based. Conditions: Homo sapiens, 240 h, chloramphenicol 50 nM - 300 µM, 10 days. As to the method:
The half maximal inhibitory concentration (IC50) is a measure of the effectiveness of a compound in inhibiting biological or biochemical function. This quantitative measure indicates, how much of a particular drug or compound is needed to inhibit a given biological process by half. In this case, the IC50 value was determined for the side-effect of the antibiotic on human cells in the presence or absence of pyruvate and/or uridine. IC50 values were determined utilizing resazurin (Cell-Quanti-Blue Cell Viability Assay Kit, Biotrend Chemikalien GmbH, Köln), a fluorescent dye indicating vital living or dead cells. For the experiment, 24-well culture dishes were seeded with a dilution of 143B.TK^- cells (10^3 cells each). The culture medium was composed of DMEM FG0445 (containing sodium pyruvate, high-glucose, glutamine; at the discretion of the supplier) supplemented with 5% FCS and 0.5 % uridine. After an initial growth of two days, cells were washed in PBS. From here, cells were grown in DMEM F0435 (containg high-glucose, without pyruvate, without glutamine; at the discretion of the supplier) supplemented with 2 % glutamine and 5% FCS. Depending on the subsequent experiments, cell growth medium was further supplemented with: • 1. w/o chloramphenicol, w/o pyruvate, w/o uridine • 2. w chloramphenicol (50 nM - 300 µM), w/o pyruvate, w/o uridine • 3. w chloramphenicol (50 nM - 300 µM), w/o pyruvate, w uridine (50 µg/ml) • 4. w chloramphenicol (50 nM - 300 µM), w pyruvate (100 µg/ml), w/o uridine • 5. w chloramphenicol (50 nM - 300 µM), w pyruvate (100 µg/ml), w uridine (50 µg/ml)
Growth medium was changed every 12 hours. The experiment was carried out for 10 days.
Measures of sets 2-5 were normalized by measure 1. Thus, when cell vitality under chloramphenicol treatment is similar to normal cell growth (measure 1), the ratio of (measure 2, 3, 4, 5) /(measure 1) expressed in % should stay close to 1. […] When pyruvate or pyruvate + uridine were added to the growth medium, IC50 of CAP was out of range (> 300 µM).

Series [5] has as its system GFP-colorized 143B.TK- cells. The class given is cell-based. The following applies: human, 13 days, 150 µg/ml. An excerpt:
(§3) The panels display co-cultures grown on petri-dishes that contain a human dermal fibroblast (HDF) monolayer inoculated with GFP-colorized 143B.TK- cells imaged by fluorescence microscopy and phase contrast microscopy. The HDF cells represent a resting post-mitotic tissue, while the GFP-colorized 143B.TK- cells mimic mitotic active cells. • Figure 1b, left panel: Without pyruvate and uridine, the side effect of chloramphenicol (or linezolid, or tigezycline) can be visualized on co-cultures similarly to the effect seen in figure 1. Approximately at day 4 of culture, the mitotic active colony enlarges and experiences growth retardation. […] The mitotic cells grow completely regularly. At day 8, the entire area is overgrown by the GFP-colorized 143B.TK^- cells.
(§4) To understand the influence of the antibiotic on cell cycles state, a co-culture was established that was based on a primary fibroblasts monolayer (mimicking cells at resting state) that was inoculated with 143B.TK^- cells (mimicking cells in mitotic state, dividing cells).
(§5) However, the fibroblast layer was completely unaffected and vital to start regrowth again (proven by executing scratches through the monolayer; "wound-healing" set in immediately). […] Both side-effects could be removed by co-administering uridine and/or pyruvate or derivatives thereof.

The subject of series [6] is human dermal fibroblast (HDF) monolayer. It counts as cell-based.
Source text: as §3, §1, §4, §5

Series [7] deals with 143B.TK^- cells. It counts as cell-based, human. As to the method: Left panel: 143B.TK^- cells containing a green colorizing gene (GFP, green color) were seeded and grown to the original density in normal growth medium (left, 1). At day 1, medium was changed to allow cell growth under pyruvate and uridine free conditions; the medium was supplemented with chloramphenicol (or linezolid, or tigezycline; see example 1). […] At day 6 (image 3), the imaged colony starts to disperse and diminishes. At day 8 (image 4), cell number further declines and cells ceased to exist (day 10). Right panel: 143B.TK^- cells containing a green colorizing gene (GFP, green color) were seeded and grown to the original density in normal growth medium (right, 1). At day 1, medium was changed to allow cell growth under controlled pyruvate and uridine supply; the medium was supplemented with chloramphenicol (or linezolid, or tigezycline; see example 1).
In order to understand the side effects of antibiotics, we incubated cultured human cells with antibiotics that are known to impede cell's metabolism. The experiments were carried out with chloramphenicol, tigezycline or linezolid under otherwise identical conditions. […] Cells were treated with chloramphenicol (150 µg/ml culture medium, 450 µM; or linezolid, or tigezycline) and medium was exchanged on a daily basis. […] After additional 4 days, cells ceased to exist (see figure 1a).

In a further series the test system is B. subtilis DSM 347. As to the kind of experiment: Paper pad agar diffusion test, non-growth zone (Examples 2 and 3). It counts as cell-based. Conditions: APT-plates as is or supplemented with uridine (50 µg/ml), sodium pyruvate (1 mM) or both; three concentrations; over night at 37°C. As to the method: (§6) Paper test pads (Rotiolabo, 6mm, Roth, Karlsruhe) were soaked with 7.5 µl of antibiotic-solution (concentrations used: 0.5 mM CAP; 0.77 mM CAP; 1.2 mM CAP; 0.15 mM LIN; 0.25 mM LIN; 0,4 mM LIN; 0.15 mM TIG; 0.25 mM TIG; 0.4 mM TIG) and placed on top of the agar plates (CAP- and LIN-solutions on APT/B. subtilis plates, TIG-solutions on LB/E. coli plates). Petri dishes were incubated over night at 37°C and analyzed by measuring the size of the non-growth zone of bacteria surrounding the antibiotics soaked paper pads (see figure 3a, and 3b).
(§7) Paper test pads (Rotiolabo, 6mm, Roth, Karlsruhe) were soaked with 7.5 µl of antibiotic-solution (concentrations used: 0.5 mM CAP; 0.77 mM CAP; 1.2 mM CAP; 0.15 mM LIN; 0.25 mM LIN, 0.4 mM LIN; 0.15 mM TIG, 0.25 mM TIG; 0.4 mM TIG; 0.5 mM CAP + 0.15 mM LIN; 0.77 mM CAP + 0.25 mM LIN; 1.2 mM CAP + 0.4 mM LIN; 0.5 mM CAP + 0.15 mM LIN + 0.15 mM TIG; 0.77 mM CAP + 0.25 mM LIN + 0.25 mM TIG; 1.2 mM CAP + 0.4 mM LIN + 0.4 mM TIG; 0.5 mM CAP + 0.15 mM TIG; 0.77 mM CAP + 0.25 mM TIG; 1.2 mM CAP + 0.4 mM TIG) and placed on top of the agar plates (CAP- and LIN-solutions on APT/B. subtilis plates, TIG-solutions on LB/E. coli plates). Petri dishes were incubated over night at 37°C and analyzed by measuring the size of the non-growth zone of bacteria surrounding the antibiotics soaked paper pads (see figure 2a, and 2b).
A general note: In agar diffusion tests the substance spreads into inoculated agar from a disc or well.

Another series has as its system E. coli DH5α. Described as above. It counts as cell-based. The following applies: LB plates as is or supplemented with uridine (50 µg/ml), sodium pyruvate (1 mM) or both; three concentrations; over night at 37°C. The procedure: as §6, §7
Where [8] appears, read: 0.2 mM uridine source alone, without any pyruvate source.

For the compound `O=c1ccn([C@@H]2O[C@H](COP(=O)(O)O)[C@@H](O)[C@H]2O)c(=O)[nH]1` [UMP, uridine monophosphate], the cell growth result in [1] (setting [8]) is “did not exhibit cell growth; also recorded: cell growth stalls and comes to an halt”.
`O=C(N[C@H](CO)[C@H](O)c1ccc([N+](=O)[O-])cc1)C(Cl)Cl` [chloramphenicol]: the cell growth result was “exhibited no limitation in cell growth; also recorded: not influenced by the side-effect of chloramphenicol and grew regularly” in series [2]; “not influenced by CAP” in series [2] (listed as CAP); “cells stopped growth after 4-5 days and ceased to exist after additional 6 days” in series [3]; “growth behavior of the cells was not altered by the antibiotic” in the series on 143B.TK^- cells [7]; “cell growth retarded and came to a halt after 6 days” in the series on 143B.TK^- cells [7] (human, 150 µg/ml). Further, the IC50 is above 300 µM with 143B.TK^- cells [4] (w pyruvate (100 µg/ml), w uridine (50 µg/ml)); above 300 µM in the series with 143B.TK^- cells [4] (w pyruvate (100 µg/ml), w/o uridine); 7.5 µM in the series with 143B.TK^- cells [4] (w/o pyruvate, w uridine (50 µg/ml)); 3.2 µM with 143B.TK^- cells [4] (w/o pyruvate, w/o uridine). For the same compound, in [5], the “growth of the mitotic active colony” value is given as “finally ceases to exist at day 13”. Besides, the “cell vitality of the HDF monolayer” value in series [6] was “no change in cell vitality”. The “Antibiotic effect (size of the non-growth zone)” value in the series with B. subtilis DSM 347 is given as “not rendered by the co-administered compounds uridine and/or pyruvate; also recorded: independent of pyruvate, uridine or pyruvate + uridine supplementation”; with E. coli DH5α, “independent of pyruvate, uridine or pyruvate + uridine supplementation”.
For `O=c1ccn([C@@H]2O[C@H](CO)[C@@H](O)[C@H]2O)c(=O)[nH]1` [uridine], the cell growth result in series [1] (setting [8]) is “did not exhibit cell growth; also recorded: cell growth stalls and comes to an halt”.
On to `CC(=O)NC[C@H]1CN(c2ccc(N3CCOCC3)c(F)c2)C(=O)O1` [linezolid], for which, in series [5], the “growth of the mitotic active colony” value was “finally ceases to exist at day 13”. Moreover, in series [6], the “cell vitality of the HDF monolayer” value was “no change in cell vitality”. Moreover, the cell growth result in the series with 143B.TK^- cells [7] was “growth behavior of the cells was not altered by the antibiotic”; in the series on 143B.TK^- cells [7] (human, 150 µg/ml), “cell growth retarded and came to a halt after 6 days”. Further, in the series with B. subtilis DSM 347, the “Antibiotic effect (size of the non-growth zone)” value was “not rendered by the co-administered compounds uridine and/or pyruvate; also recorded: independent of pyruvate, uridine or pyruvate + uridine supplementation”.
`C[C@H](N)C(=O)O` [alanine]: the cell growth entry was “displayed regular cell growth; also recorded: cells prosper and grow almost in the same range as normal cells” in [1] (on UMP supplemented media (0.2 mM UMP), alanine 1-10 mM or sodium pyruvate 1 mM); “displayed regular cell growth; also recorded: cells prosper and grow almost in the same range as normal cells” in series [1] (on uridine supplemented media (0.2 mM uridine), alanine 1-10 mM or sodium pyruvate 1 mM).
Take `CN(C)c1cc(NC(=O)CNC(C)(C)C)c(O)c2c1C[C@H]1C[C@H]3[C@H](N(C)C)C(O)=C(C(N)=O)C(=O)[C@@]3(O)C(O)=C1C2=O` [tigezycline]: the “growth of the mitotic active colony” value in [5] is “finally ceases to exist at day 13”. The “cell vitality of the HDF monolayer” value in series [6] is given as “no change in cell vitality”. Further, the cell growth entry in the series with 143B.TK^- cells [7] is “growth behavior of the cells was not altered by the antibiotic”; with 143B.TK^- cells [7] (human, 150 µg/ml) it was “cell growth retarded and came to a halt after 6 days”. For the same compound, the “Antibiotic effect (size of the non-growth zone)” value in the series on E. coli DH5α is “not rendered by the co-administered compounds uridine and/or pyruvate; also recorded: independent of pyruvate, uridine or pyruvate + uridine supplementation”.
